Results reported in patent publication US8618080B2, “Immunomodulatory compounds and treatment of diseases related to an overproduction of inflammatory cytokines” (OM Pharma, priority 2006, dated 2013).

Legend:
[1] = test system: Limulus Amoebocyte Lysate; test: Limulus Amoebocyte Lysate chromogenic test (LAL endotoxicity); type: biochemical
Description: Endotoxicity was determined first for OM-197-MP-AC and for OM-294-DP by the Limulus Amoebocyte Lysate chromogenic test (Chromogenic-LAL of Bio-Whittaker, kit n° 50-65OU).
The enzymatic reaction is carried out at 37° C. and the formation of the chromogen over time is measured at 405 nm. The time necessary to reach 0.2 units of D.O. is recorded and the endotoxic activity calculated in relation to a LPS standard (standard curve). The results are expressed in EU (Endotoxin Unit) in relation to a standardized preparation of E. coli LPS (1 EU corresponds to 0.08 ng equivalent LPS).

[2] = test system: human CD4+ T cells; test: Cytokine production and proliferation of naïve CD4+ T cells stimulated with anti-CD3 and anti-CD28; type: cell-based; details: 0.02-20 μg/ml
Description: A series of four compounds of the present invention (OM-197-MP-AC, OM-197-MC-HD, OM-294-BA-MP, OM-197-MP-HD) were tested directly as summarized below:
Naïve CD4^+ T cells were magnetically sorted from healthy blood donor (buffy coat). The cells were stimulated in the presence or not of graded doses of triacyl derivatives (0.02; 0.2; 2 and 20 μg/ml) using plate-bound anti-CD3 (5 μg/ml) and soluble anti-CD28 (1 μg/ml). After 6 days, cytokine levels (IFN-γ and IL-13) were tested in the culture supernatants using ELISA.
FIGS. 3A-3D: Effect of increasing doses of the four compounds tested (OM-197-MP-AC, n=5; OM-197-MC-HD, n=5; OM-294-BA-MP, n=7; OM-197-MP-HD, n=3) on IFN-γ and IL-13 production of human CD4^+ T cells following a polyclonal activation. Results are expressed as the median (±p25/p75) of n independent experiments and show the percentage (%) proliferation or cytokine production of treated cells versus untreated cells (considered as 100%, see dotted line). The statistical analysis was performed using a nonparametric unpaired Mann-Whitney t test (2-tailed).

[3] = test system: LACK-sensitised and -challenged BALB/c ByJ mice; test: LACK-induced allergic asthma model, other routes of administration; type: in vivo
Description: 43 females BALB/c ByJ mice 6-week old were purchased from the Centre d'Elevage Janvier (CERJ, Le Genest-St-Isle, France). All the mice were sensitised by 2 i.p. injections of 10 μg LACK protein precipitated in 2 mg of Alum (PerBio Science France SAS, Brebières, France) at days 1 and 8 (Julia et al., 2002).
OM-197-MP-AC was given from day 0 to day 12 as described below. All the mice were challenged from day 16 to day 20 with either a solution of LACK (0.15%) or with PBS as indicated below.
Experimental groups were the following: • Group A: untreated, LACK-sensitised and PBS-challenged mice (3 mice) • Group B: untreated LACK-sensitised and -challenged mice (7 mice) • Group C: i.p. OM-197-MP-AC-treated, LACK-sensitised and -challenged mice (5 mice) • Group D: i.g. OM-197-MP-AC-treated, LACK-sensitised and -challenged mice (7 mice) • Group E: s.c. OM-197-MP-AC-treated, LACK-sensitised and -challenged mice (7 mice). • Group F: i.n. OM-197-MP-AC-treated, LACK-sensitised and -challenged mice (7 mice) • Group G: aerosols OM-197-MP-AC-treated, LACK-sensitised and -challenged mice (7 mice)
Mice of groups C, D, E, and G were treated on days: 0, 2, 3, 4, 7, 9, 10, 11, whereas mice of group F (intranasal route) were only treated on days 0, 4, 7, and 11.
Mice of groups C and E were treated i.p. and s.c. respectively with 1 mg/Kg (20 μg per mouse) of OM-197-MP-AC.
Mice of group D were treated intragastrically with 50 mg/Kg (1 mg per mouse) of OM-197-MP-AC.
Mice of group F were treated i.n. with 20[…]μg of OM-197-MP-AC in a volume of 20 μl (OM-197-MP-AC at 2 mg/ml, 10[…]μl/nostril.)
Mice of group G received aerosols of a solution of OM-197-MP-AC at 0.2% (2 mg/ml) for 10 minutes.
All the mice were bled by heart puncture 2 days after the last aerosol. Total IgE were quantified by ELISA using rat EM-95 anti-IgE mAbs as coating antibody and rat anti-IgE mAbs coupled to biotin as second antibody as described elsewhere (Julia et al., 2002).
Individual mice were bled and a canula was inserted into their trachea. Lungs were washed 3 times with 1 ml of warmed PBS. Cells were washed with PBS, resuspended in 300 μl, and counted using a Burker-Türk chamber. For differential BAL cell counts, cytospin preparations were made and stained with Wright/Giemsa.

CCCCCCCCCCCC(=O)O[C@H](CCCCCCCCCCC)CC(=O)N[C@@H](CCOP(=O)(O)O)C(=O)NCCC[C@H](COC(=O)CCCCCN)NC(=O)C[C@H](O)CCCCCCCCCCC [OM-197-MP-AC, (3S, 9R)-3-[(R)-3-dodecanoyloxytetradecanoylamino]-4-oxo-5-aza-9-[(R)-3-hydroxytetradecanoylamino]-decan-1, 10-diol 1-dihydrogenophosphate 10-(6-aminohexanoate)]
Limulus activity in the chromogenic LAL assay [1]: very little or no Limulus activity | T cell proliferation [2]: unaffected | IFN-γ production by CD4+ T cells ([2]; 6 days, ELISA): unaffected | IL-13 production by CD4+ T cells ([2]; 6 days, ELISA): reduced | Eosinophils in BAL ([3]; aerosols of 0.2% solution, 10 minutes): same tendency as i.n. treated animals | BAL cell contents versus untreated mice ([3]; i.g. 50 mg/Kg, unformulated): did not yield differences | Eosinophil frequencies and numbers in BAL ([3]; i.n. 20 μg per mouse): reduced by half | Total serum IgE ([3]; i.n. 20 μg per mouse): reduced titers | Eosinophils in BAL ([3]; i.p. 1 mg/Kg): both reduced percentage and reduced numbers | Total IgE ([3]; i.p. 1 mg/Kg): reduced amounts | BAL cell contents versus untreated mice ([3]; s.c. 1 mg/Kg): did not yield differences
